Results on 1 compound are retold here after patent publication US20240010726A1, “LFA-1 SIGNALLING MEDIATOR FOR USE IN CANCER THERAPY” (Universität Basel, priority 2020, published 2024).

This assay addresses T1, LFA-1 (Homo sapiens, UniProt P05107+P20701).
T1 construct: endogenous in cells; host or cells: primary human T cells from healthy donors: PHA-induced T cell blasts, sorted EM and naive CD8 T cells, and NY-ESO-1 TCR-transduced REP T cells
Briefly: Co-culture assay with Blinatumomab, LFA-1 head-piece opening on PHA-blasts. Format: cell-based. The settings on record: 30 min co-culture with Ramos cells; Blinatumomab 300 pg ml^−1; ±Mg^2+. Here is the method:
FIG. 3: Magnesium regulates LFA-1 mediated T cell activation and cytotoxicity as well BiTE- and CAR T-cell functionality. (a) Glycolytic switch of murine WT and LFA-1^−/− CTLs upon injection of anti-CD3/28 Ab in medium containing 1.2 mM Mg^2+ and 0 mM Mg^2+, presented as quantification of summarized data with n=4 mice. (b) Calcium flux in WT and LFA-1^−/− Jurkat T cells stimulated with anti-CD3 Ab in 1.2 mM and 0 mM Mg^2+ medium, respectively. Cells were loaded with Fluo4, and signal intensity as recorded by plate reader, was normalized to unstimulated baseline values. […] Quantified results of n=3 mice with 3 technical replicates each. […] Results are quantified of n=3 mice with 3 technical replicates each. (e) Representative CD11a (LFA-1) surface expression on human naïve and EM CD8 T cells, PHA T cell blasts and REP T cells, assessed by flow cytometry. […] Data is presented as quantified results of n=5 healthy donors (f, g, h), n=3 healthy donors with 2 technical replicates each or n=1 healthy donor with 4 technical replicates (j). […] Data is presented as quantified results of n=1 healthy donor with 4 technical replicates. […] Cytotoxicity is reported as total area under the curve of the fluorescence driven by incorporation of cytotoxic green reagent in dead target cells (green area per μm^2). […]

T1 sequence (P20701 26-1170): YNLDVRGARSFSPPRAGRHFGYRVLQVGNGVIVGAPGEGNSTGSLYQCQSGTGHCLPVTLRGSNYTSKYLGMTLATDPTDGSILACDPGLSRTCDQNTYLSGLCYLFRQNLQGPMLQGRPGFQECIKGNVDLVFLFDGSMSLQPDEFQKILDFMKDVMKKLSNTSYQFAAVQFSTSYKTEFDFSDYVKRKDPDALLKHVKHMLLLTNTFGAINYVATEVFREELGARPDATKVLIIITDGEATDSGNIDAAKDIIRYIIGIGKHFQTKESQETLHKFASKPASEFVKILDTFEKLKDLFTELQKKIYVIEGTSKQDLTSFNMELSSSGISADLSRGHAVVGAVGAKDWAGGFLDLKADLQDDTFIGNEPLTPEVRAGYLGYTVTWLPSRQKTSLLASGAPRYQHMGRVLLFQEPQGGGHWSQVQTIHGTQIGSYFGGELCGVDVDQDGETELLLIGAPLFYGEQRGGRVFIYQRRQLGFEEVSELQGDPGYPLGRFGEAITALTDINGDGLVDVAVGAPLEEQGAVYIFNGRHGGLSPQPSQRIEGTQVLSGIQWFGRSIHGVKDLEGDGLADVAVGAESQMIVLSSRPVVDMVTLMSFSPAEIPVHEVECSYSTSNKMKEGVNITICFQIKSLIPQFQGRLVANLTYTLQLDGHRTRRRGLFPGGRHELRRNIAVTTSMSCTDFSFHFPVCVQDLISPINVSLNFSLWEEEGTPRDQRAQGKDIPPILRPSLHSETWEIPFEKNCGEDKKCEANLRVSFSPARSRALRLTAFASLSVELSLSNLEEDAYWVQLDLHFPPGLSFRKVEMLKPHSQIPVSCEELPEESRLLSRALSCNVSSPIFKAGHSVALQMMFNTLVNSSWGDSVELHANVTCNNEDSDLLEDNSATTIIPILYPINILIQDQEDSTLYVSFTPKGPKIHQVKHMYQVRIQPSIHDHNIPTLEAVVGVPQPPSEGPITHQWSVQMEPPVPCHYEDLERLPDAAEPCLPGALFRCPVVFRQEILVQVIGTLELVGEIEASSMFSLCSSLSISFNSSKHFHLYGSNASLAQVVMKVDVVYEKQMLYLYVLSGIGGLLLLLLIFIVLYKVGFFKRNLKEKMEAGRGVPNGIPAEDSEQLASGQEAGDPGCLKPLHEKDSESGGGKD
T1 sequence (P05107 23-769): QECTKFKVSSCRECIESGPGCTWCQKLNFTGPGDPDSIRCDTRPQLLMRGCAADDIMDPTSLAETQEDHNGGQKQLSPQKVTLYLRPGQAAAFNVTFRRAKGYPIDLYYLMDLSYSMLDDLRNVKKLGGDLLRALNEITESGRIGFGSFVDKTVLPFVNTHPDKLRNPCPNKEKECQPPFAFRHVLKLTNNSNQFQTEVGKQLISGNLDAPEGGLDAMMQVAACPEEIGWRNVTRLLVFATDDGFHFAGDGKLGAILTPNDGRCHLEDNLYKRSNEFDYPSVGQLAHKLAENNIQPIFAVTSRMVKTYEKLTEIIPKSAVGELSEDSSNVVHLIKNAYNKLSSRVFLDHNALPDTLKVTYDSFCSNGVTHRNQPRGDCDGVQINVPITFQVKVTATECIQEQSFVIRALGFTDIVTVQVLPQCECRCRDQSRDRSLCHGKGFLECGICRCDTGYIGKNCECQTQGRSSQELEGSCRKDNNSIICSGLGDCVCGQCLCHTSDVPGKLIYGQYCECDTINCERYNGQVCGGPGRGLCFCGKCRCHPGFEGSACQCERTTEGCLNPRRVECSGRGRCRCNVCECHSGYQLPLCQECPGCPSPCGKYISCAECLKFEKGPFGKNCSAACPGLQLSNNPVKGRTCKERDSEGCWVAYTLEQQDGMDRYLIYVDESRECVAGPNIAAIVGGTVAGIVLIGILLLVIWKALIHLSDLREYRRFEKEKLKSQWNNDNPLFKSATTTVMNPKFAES

In the case of `[Mg+2]` [Mg^2+, Magnesium], the “Activation-induced LFA-1 head-piece opening on PHA-blasts” value is listed as “Mg^2+-dependent”.
